As usually defined, the EC50 is the concentration at which the effect is half-maximal.

Where only a bound is given, the exact number is not on record here.

One assay deals with T1, apelin receptor (APJ) (Homo sapiens, UniProt P35414).
T1 sequence (P35414 1-380): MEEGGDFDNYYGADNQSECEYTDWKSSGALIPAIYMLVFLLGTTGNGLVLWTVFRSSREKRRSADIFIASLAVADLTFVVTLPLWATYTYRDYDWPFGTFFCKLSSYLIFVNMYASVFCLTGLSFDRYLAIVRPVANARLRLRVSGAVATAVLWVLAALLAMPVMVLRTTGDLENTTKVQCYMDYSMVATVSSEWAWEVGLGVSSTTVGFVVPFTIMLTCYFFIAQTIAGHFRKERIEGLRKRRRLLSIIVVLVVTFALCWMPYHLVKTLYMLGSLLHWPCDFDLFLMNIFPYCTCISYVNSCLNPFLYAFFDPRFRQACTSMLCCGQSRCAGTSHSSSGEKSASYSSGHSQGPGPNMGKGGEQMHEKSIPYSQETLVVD
In words: In vitro apelin agonist activity (methods of Giddings et al., Apelin-13 as positive control). It counts as cell-based. The note with it: EC50 (nM) Ave, in vitro apelin agonist activity, methods of Giddings et al., Apelin-13 as positive control. The text has this:
Characterization of the Apelin Agonist Activity of the Compounds
1:39-47, the contents of which are hereby incorporated by reference in its entirety. Using the methods described in Giddings et al. and Apelin-13 as a positive control.
Molecule `O=C(C[C@H](CN1CCC(F)(F)C1)NC(=O)c1cc(-c2ccccc2C(F)(F)F)n(C2CCCC2)n1)NC1CCC1` [compound 523, (3R)-N-cyclobutyl-3-({1-cyclopentyl-5-[2-(trifluoromethyl)phenyl]-1H-pyrazol-3-yl}formamido)-4-(3,3-difluoropyrrolidin-1-yl)butanamide] came in with an EC50 of 1210 nM.

`O=C(C[C@H](CN1CCCC(F)(F)C1)NC(=O)c1cc(-c2ccccc2C(F)(F)F)n(C2CCCC2)n1)NC1CCC1` [compound 524, (3R)-N-cyclobutyl-3-({1-cyclopentyl-5-[2-(trifluoromethyl)phenyl]-1H-pyrazol-3-yl]formamido)-4-(3,3-difluoropiperidin-1-yl)butanamide] showed an EC50 of 910 nM.

Staying with this assay, now noted: in vitro apelin agonist activity, methods of Giddings et al., Apelin-13 as positive control; read-out: EC50 (nM) Ave.
As to `Cc1cnn(CC[C@@H](CC(=O)N(C)c2nccs2)NC(=O)c2cc(-c3ccccc3C(F)(F)F)n(C3CCCC3)n2)c1` [compound 500, (3S)-3-({1-cyclopentyl-5-[2-(trifluoromethyl)phenyl]-1H-pyrazol-3-yl}formamido)-N-methyl-5-(4-methyl-1H-pyrazol-1-yl)-N-(1,3-thiazol-2-yl)pentanamide], the EC50 came out at 79 nM. With `Cc1cnn(CC[C@@H](CC(=O)NC2CCC2)NC(=O)c2cc(-c3ccccc3C(F)(F)F)n(C3CCCC3)n2)c1` [compound 501, (3S)-N-cyclobutyl-3-({1-cyclopentyl-5-[2-(trifluoromethyl)phenyl]-1H-pyrazol-3-yl}formamido)-5-(4-methyl-1H-pyrazol-1-yl)pentanamide], the EC50 came to 26 nM. On to `Cc1cc(C)n(CC[C@@H](CC(=O)N(C)c2nccs2)NC(=O)c2cc(-c3ccccc3C(F)(F)F)n(C3CCCC3)n2)n1` [compound 502, (3S)-3-({1-cyclopentyl-5-[2-(trifluoromethyl)phenyl]-1H-pyrazol-3-yl}formamido)-5-(3,5-dimethyl-1H-pyrazol-1-yl)-N-methyl-N-(1,3-thiazol-2-yl)pentanamide], for which the 50% effective concentration (EC50) came out at 77 nM. In the case of `Cc1cc(C)n(CC[C@@H](CC(=O)NC2CCC2)NC(=O)c2cc(-c3ccccc3C(F)(F)F)n(C3CCCC3)n2)n1` [compound 503, (3S)-N-cyclobutyl-3-({1-cyclopentyl-5-[2-(trifluoromethyl)phenyl]-1H-pyrazol-3-yl}formamido)-5-(3,5-dimethyl-1H-pyrazol-1-yl)pentanamide], the concentration for a half-maximal effect (EC50) was determined as 157 nM. On the same count and under the same terms, the figure for `O=C(C[C@H](CCN1CCCC1)NC(=O)c1cc(-c2ccccc2C(F)(F)F)n(C2CCCC2)n1)NC1CCC1` [compound 504, (3S)-N-cyclobutyl-3-({1-cyclopentyl-5-[2-(trifluoromethyl)phenyl]-1H-pyrazol-3-yl}formamido)-5-(pyrrolidin-1-yl)pentanamide] is 59 nM. Consider `O=C(C[C@H](CCN1CCCCCC1)NC(=O)c1cc(-c2ccccc2C(F)(F)F)n(C2CCCC2)n1)NC1CCC1` [compound 505, (3S)-5-(azepan-1-yl)-N-cyclobutyl-3-({1-cyclopentyl-5-[2(trifluoromethyl)phenyl]-1H-pyrazol-3-yl}formamido)pentanamide], for which the concentration for a half-maximal effect (EC50) came to 34 nM.

For the molecule `CN(CC[C@@H](CC(=O)NC1CCC1)NC(=O)c1cc(-c2ccccc2C(F)(F)F)n(C2CCCC2)n1)C1CCC1` [compound 506, (3S)-N-cyclobutyl-5-[cyclobutyl(methyl)amino]-3-({1-cyclopentyl-5-[2-(trifluoromethyl)phenyl]-1H-pyrazol-3-yl}formamido)pentanamide], the EC50 worked out at 32 nM. Take `O=C(O)C[C@H](CC(=O)N1CCCCC1)NC(=O)c1cc(-c2ccccc2C(F)(F)F)n(C2CCCC2)n1` [compound 508, (3S)-3-({1-cyclopentyl-5-[2-(trifluoromethyl)phenyl]-1H-pyrazol-3-yl}formamido)-5-oxo-5-(piperidin-1-yl)pentanoic acid]: the concentration for a half-maximal effect (EC50) came out at 475 nM. Regarding `O=C(O)C[C@H](CC(=O)N1CCCC(F)(F)C1)NC(=O)c1cc(-c2ccccc2C(F)(F)F)n(C2CCCC2)n1` [compound 509, (3S)-3-({1-cyclopentyl-5-[2-(trifluoromethyl)phenyl]-1H-pyrazol-3-yl}formamido)-5-(3,3-difluoropiperidin-1-yl)-5-oxopentanoic acid], the EC50 was found to be 1060 nM. As to `O=C(C[C@H](CCc1ccc(F)cc1)NC(=O)c1cc(-c2ccccc2C(F)(F)F)n(C2CCCC2)n1)NN1CCCC1` [compound 510, (3S)-3-({1-cyclopentyl-5-[2-(trifluoromethyl)phenyl]-1H-pyrazol-3-yl}formamido)-5-(4-fluorophenyl)-N-(pyrrolidin-1-yl)pentanamide], the concentration giving a half-maximal response (EC50) is 2190 nM. `CN(CC[C@@H](CC(=O)NC1CCC1)NC(=O)c1cc(-c2ccccc2C(F)(F)F)n(C2CCCC2)n1)C1(C)CCCC1` [compound 511, (3S)-N-cyclobutyl-3-({1-cyclopentyl-5-[2-(trifluoromethyl)phenyl]-1H-pyrazol-3-yl}formamido)-5-[methyl(1-methylcyclopentyl)amino]pentanamide]: the EC50 is 35 nM.

Regarding `O=C(C[C@H](CC(=O)N1CCCCC1)NC(=O)c1cc(-c2ccccc2C(F)(F)F)n(C2CCCC2)n1)NC1CCC1` [compound 514, (3R)-N-cyclobutyl-3-({1-cyclopentyl-5-[2-(trifluoromethyl)phenyl]-1H-pyrazol-3-yl}formamido)-5-oxo-5-(piperidin-1-yl)pentanamide], the EC50 worked out at 79 nM. The same measure, in the same setting: next, `O=C(C[C@H](CC(=O)N1CCCC(F)(F)C1)NC(=O)c1cc(-c2ccccc2C(F)(F)F)n(C2CCCC2)n1)NC1CCC1` [compound 515, (3R)-N-cyclobutyl-3-({1-cyclopentyl-5-[2-(trifluoromethyl)phenyl]-1H-pyrazol-3-yl}formamido)-5-(3,3-difluoropiperidin-1-yl)-5-oxopentanamide]: 47 nM; `CC1(C)CCCCN1CC[C@@H](CC(=O)NC1CCC1)NC(=O)c1cc(-c2ccccc2C(F)(F)F)n(C2CCCC2)n1` [compound 517, (3S)-N-cyclobutyl-3-({1-cyclopentyl-5-[2-(trifluoromethyl)phenyl]-1H-pyrazol-3-yl}formamido)-5-(2,2-dimethylpiperidin-1-yl)pentanamide]: 261 nM.

Regarding `O=C(O)C[C@H](CN1CCC(F)(F)C1)NC(=O)c1cc(-c2ccccc2C(F)(F)F)n(C2CCCC2)n1` [compound 518, (3R)-3-({1-cyclopentyl-5-[2-(trifluoromethyl)phenyl]-1H-pyrazol-3-yl}formamido)-4-(3,3-difluoropyrrolidin-1-yl)butanoic acid], the 50% effective concentration (EC50) was over 10000 nM.

`O=C(O)C[C@H](CN1CCCC(F)(F)C1)NC(=O)c1cc(-c2ccccc2C(F)(F)F)n(C2CCCC2)n1` [compound 519, (3R)-3-({1-cyclopentyl-5-[2-(trifluoromethyl)phenyl]-1H-pyrazol-3-yl]formamido)-4-(3,3-difluoropiperidin-1-yl)butanoic acid]: the EC50 is over 10000 nM. Same read-out and setting: next, `O=C(C[C@H](CCN1CCCCC1)NC(=O)c1cc(-c2ccccc2C(F)(F)F)n(C2CCCC2)n1)NC1CC(F)(F)C1` [compound 520, (3S)-3-({1-cyclopentyl-5-[2-(trifluoromethyl)phenyl]-1H-pyrazol-3-yl}formamido)-N-(3,3-difluorocyclobutyl)-5-(piperidin-1-yl)pentanamide]: 45 nM; `O=C(C[C@H](CCN1CC2CCC1CC2)NC(=O)c1cc(-c2ccccc2C(F)(F)F)n(C2CCCC2)n1)NC1CCC1` [compound 521]: 100 nM; `O=C(C[C@H](CCN1CCCCC12COC2)NC(=O)c1cc(-c2ccccc2C(F)(F)F)n(C2CCCC2)n1)NC1CCC1` [compound 522]: 64 nM. On the same count and under the same terms, next, `O=C(O)C[C@H](CCN1CCCC(F)(F)C1)NC(=O)c1nc(-c2cccnc2C(F)(F)F)n(C2CCCC2)n1` [compound 525]: over 10000 nM; `O=C(N[C@@H](CC1CCCC1)C(=O)O)c1cc(-c2ccccc2C(F)(F)F)n(C2CCCC2)n1` [compound 526, (2S)-3-cyclopentyl-2-({1-cyclopentyl-5-[2-(trifluoromethyl)phenyl]-1H-pyrazol-3-yl}formamido)propanoic acid]: 1720 nM; `CC(C)C[C@H](NC(=O)c1cc(-c2ccccc2C(F)(F)F)n(C2CCCC2)n1)C(=O)O` [compound 527, (2S)-2-({1-cyclopentyl-5-[2-(trifluoromethyl)phenyl]-1H-pyrazol-3-yl}formamido)-4-methylpentanoic acid]: over 10000 nM. As for `CC(C)[C@H](NC(=O)c1cc(-c2ccccc2C(F)(F)F)n(C2CCCC2)n1)C(=O)O` [compound 528, (2S)-2-({1-cyclopentyl-5-[2-(trifluoromethyl)phenyl]-1H-pyrazol-3-yl}formamido)-3-methylbutanoic acid], the EC50 is over 10000 nM. Still for that read-out and setting: the figure for `O=C(C[C@H](CCN1CCCC(F)(F)C1)NC(=O)c1cc(-c2ccccc2C(F)(F)F)n(C2CCCC2)n1)NS(=O)(=O)C(F)(F)F` [compound 529, (3S)-3-({1-cyclopentyl-5-[2-(trifluoromethyl)phenyl]-1H-pyrazol-3-yl}formamido)-5-(3,3-difluoropiperidin-1-yl)-N-(trifluoromethane)sulfonylpentanamide] is 134 nM; for `CN(C[C@@H](CC(=O)O)NC(=O)c1cc(-c2ccccc2C(F)(F)F)n(C2CCCC2)n1)C1CCCCC1` [compound 533, (3R)-4-[cyclohexyl(methy)amino1]-3-({1-cyclopentyl-5-[2-(trifluoromethyl)phenyl]-1H-pyrazol-3-yl}formamido)butanoic acid] it is 822 nM.

The values above are taken from patent US11535630B2, “Apelin receptor (APJ) agonists and uses thereof” (Research Triangle Institute, priority 2015, dated 2022).
